Test results from the supplement of paper PMC10307832.

Tests used:
Assay in all cases: relative viability (nuclei count vs DMSO), 5 days (fraction); higher = more cells survive
Vorinostat + Bortezomib = compound: O=C(CCCCCCC(=O)Nc1ccccc1)NO [Vorinostat] + CC(C)C[C@H](NC(=O)[C@H](Cc1ccccc1)NC(=O)c1cnccn1)B(O)O [Bortezomib] (partner 0.002 µM)
Outline: (§1)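 After 5 days of treatment, lung cancer cells in 1536-well plates were fixed and stained in a single step (final 0.05% Triton X-100, 1% formaldehyde, 1 ug/ml Hoechst) and their nuclei counted on 4× images. Treatment had been applied by pin tool the day after seeding as one drug alone or as a fixed anchor-drug dose with five library-drug doses (not always all listed) in √10 steps. Relative viability is the nuclei count of treated wells divided by that of vehicle wells, and values are medians of duplicate plates.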

Vorinostat + Navitoclax = compound: O=C(CCCCCCC(=O)Nc1ccccc1)NO [Vorinostat] + CC1(C)CCC(c2ccc(Cl)cc2)=C(CN2CCN(c3ccc(C(=O)NS(=O)(=O)c4ccc(N[C@H](CCN5CCOCC5)CSc5ccccc5)c(S(=O)(=O)C(F)(F)F)c4)cc3)CC2)C1 [Navitoclax] (partner 0.5 µM)
Outline: as §1

Vorinostat + Alpelisib = compound: O=C(CCCCCCC(=O)Nc1ccccc1)NO [Vorinostat] + Cc1nc(NC(=O)N2CCC[C@H]2C(N)=O)sc1-c1ccnc(C(C)(C)C(F)(F)F)c1 [Alpelisib] (partner 2 µM)
Outline: as §1

Vorinostat + Decitabine = compound: O=C(CCCCCCC(=O)Nc1ccccc1)NO [Vorinostat] + Nc1ncn([C@H]2C[C@H](O)[C@@H](CO)O2)c(=O)n1 [Decitabine] (partner 2 µM)
Outline: as §1

**Q.** Which relative viability (Vorinostat + Bortezomib; first compound 0.253 µM) does the source give for NCI-H2126 here?
**A.** 1.13

**Q.** And the relative viability (Vorinostat + Bortezomib; first compound 0.8 µM)?
**A.** 1.13

**Q.** What about the relative viability (Vorinostat + Bortezomib; first compound 2.53 µM) of the same cell line?
**A.** 0.943

**Q.** And the relative viability (Vorinostat + Bortezomib; first compound 8 µM)?
**A.** 0.371

**Q.** And the relative viability (Vorinostat + Navitoclax; first compound 0.253 µM)?
**A.** 0.834

**Q.** What about the relative viability (Vorinostat + Navitoclax; first compound 0.8 µM) of the same cell line?
**A.** 0.756

**Q.** What about the relative viability (Vorinostat + Navitoclax; first compound 2.53 µM) of the same cell line?
**A.** 0.489

**Q.** And the relative viability (Vorinostat + Navitoclax; first compound 8 µM)?
**A.** 0.211

**Q.** What about the relative viability (Vorinostat + Alpelisib; first compound 0.253 µM) of the same cell line?
**A.** 0.733

**Q.** What about the relative viability (Vorinostat + Alpelisib; first compound 0.8 µM) of the same cell line?
**A.** 0.653

**Q.** What about the relative viability (Vorinostat + Alpelisib; first compound 2.53 µM) of the same cell line?
**A.** 0.365

**Q.** What about the relative viability (Vorinostat + Alpelisib; first compound 8 µM) of the same cell line?
**A.** 0.199

**Q.** And the relative viability (Vorinostat + Decitabine; first compound 0.253 µM)?
**A.** 0.58

**Q.** And the relative viability (Vorinostat + Decitabine; first compound 0.8 µM)?
**A.** 0.533

**Q.** And the relative viability (Vorinostat + Decitabine; first compound 2.53 µM)?
**A.** 0.332

**Q.** And the relative viability (Vorinostat + Decitabine; first compound 8 µM)?
**A.** 0.19

**Q.** What does the source list for COR-L 105?
**A.** relative viability (Vorinostat + Bortezomib; first compound 0.253 µM): 1.3; relative viability (Vorinostat + Bortezomib; first compound 0.8 µM): 0.617; relative viability (Vorinostat + Bortezomib; first compound 2.53 µM): 0.292; relative viability (Vorinostat + Bortezomib; first compound 8 µM): 0.267; relative viability (Vorinostat + Navitoclax; first compound 0.253 µM): 0.741; relative viability (Vorinostat + Navitoclax; first compound 0.8 µM): 0.58; relative viability (Vorinostat + Navitoclax; first compound 2.53 µM): 0.257; relative viability (Vorinostat + Navitoclax; first compound 8 µM): 0.234; relative viability (Vorinostat + Alpelisib; first compound 0.253 µM): 1.37; relative viability (Vorinostat + Alpelisib; first compound 0.8 µM): 0.783; relative viability (Vorinostat + Alpelisib; first compound 2.53 µM): 0.249; relative viability (Vorinostat + Alpelisib; first compound 8 µM): 0.184; relative viability (Vorinostat + Decitabine; first compound 0.253 µM): 0.588; relative viability (Vorinostat + Decitabine; first compound 0.8 µM): 0.679; relative viability (Vorinostat + Decitabine; first compound 2.53 µM): 0.362; relative viability (Vorinostat + Decitabine; first compound 8 µM): 0.256

**Q.** How did the relative viability (Vorinostat + Bortezomib; first compound 0.253 µM) turn out when NCI-H727 was run?
**A.** 0.928

**Q.** What about the relative viability (Vorinostat + Bortezomib; first compound 0.8 µM) of the same cell line?
**A.** 0.613

**Q.** And the relative viability (Vorinostat + Bortezomib; first compound 2.53 µM)?
**A.** 0.324

**Q.** What about the relative viability (Vorinostat + Bortezomib; first compound 8 µM) of the same cell line?
**A.** 0.233

**Q.** What about the relative viability (Vorinostat + Navitoclax; first compound 0.253 µM) of the same cell line?
**A.** 0.433

**Q.** What about the relative viability (Vorinostat + Navitoclax; first compound 0.8 µM) of the same cell line?
**A.** 0.506

**Q.** What about the relative viability (Vorinostat + Navitoclax; first compound 2.53 µM) of the same cell line?
**A.** 0.241

**Q.** And the relative viability (Vorinostat + Navitoclax; first compound 8 µM)?
**A.** 0.196

**Q.** What about the relative viability (Vorinostat + Alpelisib; first compound 0.253 µM) of the same cell line?
**A.** 0.536

**Q.** And the relative viability (Vorinostat + Alpelisib; first compound 0.8 µM)?
**A.** 0.68

**Q.** What about the relative viability (Vorinostat + Alpelisib; first compound 2.53 µM) of the same cell line?
**A.** 0.303

**Q.** What about the relative viability (Vorinostat + Alpelisib; first compound 8 µM) of the same cell line?
**A.** 0.203

**Q.** And the relative viability (Vorinostat + Decitabine; first compound 0.253 µM)?
**A.** 0.902

**Q.** And the relative viability (Vorinostat + Decitabine; first compound 0.8 µM)?
**A.** 0.82

**Q.** And the relative viability (Vorinostat + Decitabine; first compound 2.53 µM)?
**A.** 0.707

**Q.** What about the relative viability (Vorinostat + Decitabine; first compound 8 µM) of the same cell line?
**A.** 0.522

**Q.** For LOU-NH91, which relative viability (Vorinostat + Bortezomib; first compound 0.253 µM) is on record?
**A.** 0.514

**Q.** What about the relative viability (Vorinostat + Bortezomib; first compound 0.8 µM) of the same cell line?
**A.** 0.475

**Q.** And the relative viability (Vorinostat + Bortezomib; first compound 2.53 µM)?
**A.** 0.438

**Q.** And the relative viability (Vorinostat + Bortezomib; first compound 8 µM)?
**A.** 0.354

**Q.** And the relative viability (Vorinostat + Navitoclax; first compound 0.253 µM)?
**A.** 0.791

**Q.** What about the relative viability (Vorinostat + Navitoclax; first compound 0.8 µM) of the same cell line?
**A.** 0.568

**Q.** And the relative viability (Vorinostat + Navitoclax; first compound 2.53 µM)?
**A.** 0.313

**Q.** And the relative viability (Vorinostat + Navitoclax; first compound 8 µM)?
**A.** 0.233

**Q.** What about the relative viability (Vorinostat + Alpelisib; first compound 0.253 µM) of the same cell line?
**A.** 0.792

**Q.** And the relative viability (Vorinostat + Alpelisib; first compound 0.8 µM)?
**A.** 0.676

**Q.** What about the relative viability (Vorinostat + Alpelisib; first compound 2.53 µM) of the same cell line?
**A.** 0.452

**Q.** And the relative viability (Vorinostat + Alpelisib; first compound 8 µM)?
**A.** 0.322

**Q.** What about the relative viability (Vorinostat + Decitabine; first compound 0.253 µM) of the same cell line?
**A.** 0.845

**Q.** What about the relative viability (Vorinostat + Decitabine; first compound 0.8 µM) of the same cell line?
**A.** 0.854

**Q.** And the relative viability (Vorinostat + Decitabine; first compound 2.53 µM)?
**A.** 0.702

**Q.** What about the relative viability (Vorinostat + Decitabine; first compound 8 µM) of the same cell line?
**A.** 0.45

**Q.** For RERF-LC-KJ, which relative viability (Vorinostat + Bortezomib; first compound 0.253 µM) is on record?
**A.** 1.2

**Q.** And the relative viability (Vorinostat + Bortezomib; first compound 0.8 µM)?
**A.** 1.04

**Q.** What about the relative viability (Vorinostat + Bortezomib; first compound 2.53 µM) of the same cell line?
**A.** 0.423

**Q.** And the relative viability (Vorinostat + Bortezomib; first compound 8 µM)?
**A.** 0.286

**Q.** What about the relative viability (Vorinostat + Navitoclax; first compound 0.253 µM) of the same cell line?
**A.** 1.25

**Q.** What about the relative viability (Vorinostat + Navitoclax; first compound 0.8 µM) of the same cell line?
**A.** 0.754

**Q.** What about the relative viability (Vorinostat + Navitoclax; first compound 2.53 µM) of the same cell line?
**A.** 0.251

**Q.** What about the relative viability (Vorinostat + Navitoclax; first compound 8 µM) of the same cell line?
**A.** 0.291

**Q.** And the relative viability (Vorinostat + Alpelisib; first compound 0.253 µM)?
**A.** 0.862

**Q.** What about the relative viability (Vorinostat + Alpelisib; first compound 0.8 µM) of the same cell line?
**A.** 0.898

**Q.** What about the relative viability (Vorinostat + Alpelisib; first compound 2.53 µM) of the same cell line?
**A.** 0.457

**Q.** And the relative viability (Vorinostat + Alpelisib; first compound 8 µM)?
**A.** 0.234

**Q.** And the relative viability (Vorinostat + Decitabine; first compound 0.253 µM)?
**A.** 0.79

**Q.** And the relative viability (Vorinostat + Decitabine; first compound 0.8 µM)?
**A.** 0.614

**Q.** And the relative viability (Vorinostat + Decitabine; first compound 2.53 µM)?
**A.** 0.184

**Q.** What about the relative viability (Vorinostat + Decitabine; first compound 8 µM) of the same cell line?
**A.** 0.254

**Q.** NCI-H2347 was tested. Which relative viability (Vorinostat + Bortezomib; first compound 0.253 µM) did it give?
**A.** 0.971

**Q.** And the relative viability (Vorinostat + Bortezomib; first compound 0.8 µM)?
**A.** 0.843

**Q.** And the relative viability (Vorinostat + Bortezomib; first compound 2.53 µM)?
**A.** 0.561

**Q.** And the relative viability (Vorinostat + Bortezomib; first compound 8 µM)?
**A.** 0.199

**Q.** What about the relative viability (Vorinostat + Navitoclax; first compound 0.253 µM) of the same cell line?
**A.** 0.933

**Q.** And the relative viability (Vorinostat + Navitoclax; first compound 0.8 µM)?
**A.** 0.714

**Q.** What about the relative viability (Vorinostat + Navitoclax; first compound 2.53 µM) of the same cell line?
**A.** 0.238

**Q.** What about the relative viability (Vorinostat + Navitoclax; first compound 8 µM) of the same cell line?
**A.** 0.16

**Q.** And the relative viability (Vorinostat + Alpelisib; first compound 0.253 µM)?
**A.** 1.11

**Q.** And the relative viability (Vorinostat + Alpelisib; first compound 0.8 µM)?
**A.** 1.08

**Q.** What about the relative viability (Vorinostat + Alpelisib; first compound 2.53 µM) of the same cell line?
**A.** 0.526

**Q.** And the relative viability (Vorinostat + Alpelisib; first compound 8 µM)?
**A.** 0.221

**Q.** And the relative viability (Vorinostat + Decitabine; first compound 0.253 µM)?
**A.** 0.644

**Q.** And the relative viability (Vorinostat + Decitabine; first compound 0.8 µM)?
**A.** 0.62

**Q.** What about the relative viability (Vorinostat + Decitabine; first compound 2.53 µM) of the same cell line?
**A.** 0.508

**Q.** What about the relative viability (Vorinostat + Decitabine; first compound 8 µM) of the same cell line?
**A.** 0.24

**Q.** Which results are given for NCI-H1993?
**A.** relative viability (Vorinostat + Bortezomib; first compound 0.253 µM): 1.17; relative viability (Vorinostat + Bortezomib; first compound 0.8 µM): 1.13; relative viability (Vorinostat + Bortezomib; first compound 2.53 µM): 0.461; relative viability (Vorinostat + Bortezomib; first compound 8 µM): 0.411; relative viability (Vorinostat + Navitoclax; first compound 0.253 µM): 1; relative viability (Vorinostat + Navitoclax; first compound 0.8 µM): 0.998; relative viability (Vorinostat + Navitoclax; first compound 2.53 µM): 0.608; relative viability (Vorinostat + Navitoclax; first compound 8 µM): 0.438; relative viability (Vorinostat + Alpelisib; first compound 0.253 µM): 0.737; relative viability (Vorinostat + Alpelisib; first compound 0.8 µM): 0.691; relative viability (Vorinostat + Alpelisib; first compound 2.53 µM): 0.562; relative viability (Vorinostat + Alpelisib; first compound 8 µM): 0.522; relative viability (Vorinostat + Decitabine; first compound 0.253 µM): 0.704; relative viability (Vorinostat + Decitabine; first compound 0.8 µM): 0.65; relative viability (Vorinostat + Decitabine; first compound 2.53 µM): 0.465; relative viability (Vorinostat + Decitabine; first compound 8 µM): 0.16
